Results taken from patent US20100196308A1, “VITAMIN D3 AND ANALOGS THEREOF FOR ALLEVIATING SIDE EFFECTS ASSOCIATED WITH CHEMOTHERAPY” (priority 2009, published 2010).

Assays:
[1] = system: Peripheral circulating progenitor stem cells; test: Colony formation assay in semi-solid agar medium with GM-CSF and G-CSF; format: cell-based, human; settings: Group 2: 0.05 μg/mL 1,25(OH)2D3 for 24 hours, no 4-HC; mean ± SD, quadruplicates
Text: Tissue culture grade agar, fetal calf serum (FCS), and powdered Dulbecco's Modified Eagle's Medium (DMEM) were obtained from Invitrogen (Carlsbad, Calif.). Peripheral circulating progenitor stem cells were obtained by venipuncture of the saphenous vein of a healthy donor into sodium heparin vacutainers (Becton, Dickinson and Company, Franklyn Lakes N.J.). The buffy coat was obtained by gradient centrifugation using histopaque 1077 as per manufacturer's instructions. Cells were washed twice with RMPI 1640 supplemented with 10% fetal calf serum (Invitrogen). […] Cells were cultured for 14 days in a 5% CO2 incubator, with 100% humidity at 37° C. At the end of the culture period, colonies (clusters of 50 or more cells) were counted using an inverted microscope by two independent viewers. Peripheral stem cells were randomized into 4 groups at a concentration of 5×10^5 cells/mL in DMEM supplemented with 10% fetal calf serum. Group 1 was an untreated control, group 2 was incubated for 24 hours with 0.05 μg/mL of 1,25(OH)2D3, group 3 was incubated for 24 hours with 0.05 μg/mL of 1,25(OH)2D3, group 4 was untreated. Cells were washed with DMEM 10% fetal calf serum. Groups 3 and 4 were then incubated with 25 μg/mL of 4-HC for 20 hours. Subsequently, all groups were washed twice as previously described. Cells were then plated in semi-solid agar medium as described above.

[2] = Viability of myeloid cells by trypan blue exclusion; format: cell-based; settings: human, 24-hour exposure, RPMI 1640 with 10% fetal calf serum (FIG. 2)
Experimental: Varying doses of 1,25(OH)2D3 were applied to the myeloid cells. A graph of the effects of 1,25(OH)2D3 on myeloid cells is provided as FIG. 2. The viability of the myeloid cells was determined by trypan blue exclusion after a 24-hour exposure to varying doses of 1,25(OH)2D3. For these experiments, 2.5×10^5 cells/mL were incubated with different doses of 1,25(OH)2D3 (0.01 μg/mL, 0.1 μg/mL, 0.5 μg/mL, 0.75 μg/mL, 1 μg/mL, and 10 μg/mL) for 24 hours in RPMI 1640 supplemented with 10% fetal calf serum.

[3] = system: Long Evans rats injected with MIAC51; test: Absolute neutrophil counts in chloroleukemic rats under chemotherapy regimens; settings: for Nadir ANC without calcitriol treatment: chemotherapy + vehicle
Experimental: For the first cycle of experiments, 15-day old Long Evans rats were injected with MIAC51. […] Starting on day 20 through 32, complete granulocyte counts were then performed by puncturing the tail vein with a 27 gauge syringe while animals were manually restrained.
Neutrophil counts were measured by puncturing the tail vein as described above. […] On day 52, rats were randomized into 3 groups for each chemotherapy regimen.

[4] = system: bone marrow progenitors; test: Bone marrow cultures (colony counts) from chemotherapy-treated chloroleukemic rats
Experimental: To assay the Colony-Forming Activity of bone marrow progenitors and MIAC51 cells, bone marrow cells are obtained as previously described (Jimenez and Yunis, 1988), and are washed with serum free DMEM. Cells are then suspended to a concentration of 1×10^6/mL and layered onto a gradient for centrifugation for 40 minutes at 400 g. The pellet found between the medium and gradient is then carefully aspirated and washed in serum free DMEM two times. Finally, a cell suspension containing 1×10^5 cells/mL is prepared in DMEM supplemented with 10% fetal bovine serum, and incubated in tissue culture plates for 3 hours. The non-adherent cells are aspirated and transferred to semi-solid agar culture plates.
To prepare semi-solid agar medium, powdered MEM is reconstituted in tissue-culture grade water to a concentration of 2×. Agar (0.3%) is then added and the mixture is boiled until the agar is fully dissolved (Perkins and Yunis, 1986). The medium is cooled to 37° C. and essential amino acids which might have been depleted during the boiling process are then added. The semi-solid medium is then distributed onto multi-well clusters, filling one well with tissue culture grade water to avoid further evaporation. At this point, G- or GM-CSF are added following manufacturer's procedure, and the bone marrow cell suspension or MIAC51 cells are added by careful pipetting in order to avoid bubbles. Colonies are counted 7 days later.
Bone marrow cultures were performed on days 22, 25 and 32. On day 32, a complete leukocyte count was performed in all animals and those who were positive for MIAC51 were sacrificed.

[5] = Calcium levels in chemotherapy-treated chloroleukemic rats
Text: On days 22, 26, 49 and 53, blood from 3 animals is collected by cardiac puncture. All blood samples are collected in a vial for analysis of calcium levels. All animals used for bone marrow cultures are anesthetized and exsanguinated prior to obtaining the bone marrow.

[6] = system: MIAC51; settings: stated in the power analysis of Example 2
Experimental: Sprague Dawley rats (10-day old rat pups, preferably of natural litters) are used in this study. […] Thus, in rats the onset of neutropenia as judged by the nadir of ANC has been well characterized.
To obtain a power of 0.8 and a=0.05 with an absolute difference of 20%, 36 animals per group may be needed. […] According to power analysis, the minimum sample size to achieve statistical significance is 36 animals. Therefore, 4 more animals are added to each group to account for model attrition rate of 10%.

C=C1/C(=C\C=C2/CCC[C@]3(C)[C@@H]([C@H](C)CCCC(C)(C)O)CC[C@@H]23)C[C@@H](O)C[C@@H]1O [calcitriol, 1,25-dihydroxyvitamin D3]
Colony Counts at 14 Days [1]: 48 ± 6
viability at 24 h, 0.05 μg/mL [2]: 90%
Nadir ANC with calcitriol treatment ([3]; first cycle, 10 μg calcitriol pulse, cyclophosphamide (150 mg/kg) regimen): 2154 ± 147/mm^3
Nadir ANC with calcitriol treatment ([3]; first cycle, 10 μg calcitriol pulse, cyclophosphamide and doxorubicin (100 mg/kg, 25 mg/kg) regimen): 2365 ± 145/mm^3
Nadir ANC with calcitriol treatment ([3]; first cycle, 10 μg calcitriol pulse, cyclophosphamide, doxorubicin and paclitaxel (100, 25, 10 mg/kg) regimen): 2365 ± 125/mm^3
effect on nadir ANC ([3]; first cycle, all three chemotherapy regimens): significantly decreases the nadir ANC
Nadir ANC with calcitriol treatment ([3]; second cycle, 20 μg calcitriol, cyclophosphamide and doxorubicin regimen): 2417 ± 136/mm^3
Nadir ANC with calcitriol treatment ([3]; second cycle, 20 μg calcitriol, cyclophosphamide regimen): 2451 ± 235/mm^3
Nadir ANC with calcitriol treatment ([3]; second cycle, 20 μg calcitriol, cyclophosphamide, doxorubicin and paclitaxel regimen): 2364 ± 136/mm^3
protection against chemotherapy-induced neutropenia ([3]; second cycle, all three chemotherapy regimens): significantly protects against chemotherapy-induced neutropenia in all three chemotherapy regimens
colony count of bone marrow cultures ([4]; day 22, first cycle, cyclophosphamide and calcitriol (FIG. 4a)): 56±17 colonies
colony count of bone marrow cultures ([4]; day 25, first cycle, cyclophosphamide and calcitriol (FIG. 5a)): 80±15 colonies
colony count of bone marrow cultures ([4]; day 40 (so in the source), second cycle, cyclophosphamide and calcitriol): 82±25 colonies
colony count of bone marrow cultures ([4]; day 52, second cycle, cyclophosphamide and calcitriol): 86±25 colonies
hypercalcemia ([5]; rat, in vivo): did not induce hypercalcemia

Cyclophosphamide
Nadir ANC without calcitriol treatment ([3]; first cycle): 245 ± 25/mm^3
Nadir ANC without calcitriol treatment ([3]; second cycle): 236 ± 32/mm^3
colony count of bone marrow cultures ([4]; day 22, first cycle, cyclophosphamide and vehicle): 5±1 colonies
colony count of bone marrow cultures ([4]; day 25, first cycle, cyclophosphamide and vehicle): 12±4 colonies
colony count of bone marrow cultures ([4]; day 40 (so in the source), second cycle, cyclophosphamide and vehicle): 4.5±1 colonies
colony count of bone marrow cultures ([4]; day 52, second cycle, cyclophosphamide-treated): 7±2.5 colonies
Calcium Levels ([5]; Day 22, Chemo + Vehicle): 11 ± 0.3 mg/dL
Calcium Levels ([5]; Day 25, Chemo + Vehicle): 9.5 ± 0.2 mg/dL
Calcium Levels ([5]; Day 32, Chemo + Vehicle): 9.5 ± 0.5 mg/dL
Calcium Levels ([5]; Day 49, Chemo + Vehicle): 11 ± 0.2 mg/dL
Calcium Levels ([5]; Day 52, Chemo + Vehicle): 10 ± 0.5 mg/dL
Calcium Levels ([5]; Day 60, Chemo + Vehicle): 11 ± 0.4 mg/dL
Remission rate [6]: at least 20%
